Common to all, as to assay type: in vivo
In assay [1] the test system is Abutilon theophrasti (ABUTH). Nature of the assay: Greenhouse herbicidal action of glyphosate test formulations, plant growth assessed on a % scale. Conditions: copolymer 600 g/ha where named, 300 l/ha, after 21 days at 20° C. How it is done: (§1) Test formulations were prepared with in each case 200 g, 300 g and 500 g of glyphosate and in each case 600 g of the copolymers I to V in 300 l of water. The data by weight refer to 100% active ingredient and 100% adjuvant. An amount of the formulation corresponding to the ratio 300 l/ha was applied in a greenhouse to the plant species Abutilon theophrasti (ABUTH), Sesbania exaltata (SEBEX), Pharbitis purpurea (PHBPU), Galium aparine (GALAP), Amaranthus retroflexus (AMARE) and Echinochloa crus-galli (ECHCG), and, after 21 days at 20° C., the plant growth was assessed according to a % scale.
(§2) 0% means no effect and 100% means complete destruction of the types of plant.

In assay [2] the test system is Amaranthus retroflexus (AMARE). The description is as above. Conditions: copolymer 600 g/ha where named, 300 l/ha, after 21 days at 20° C. How it is done:
as §1, §2

The subject of assay [3] is Echinochloa crus-galli (ECHCG). The description is as above. Conditions: copolymer 600 g/ha where named, 300 l/ha, after 21 days at 20° C. On the procedure:
as §1, §2

The next assay has as its system Galium aparine (GALAP). Described as above. Conditions: copolymer 600 g/ha where named, 300 l/ha, after 21 days at 20° C. On the procedure: as §1, §2
For assay [4], the system named is Pharbitis purpurea (PHBPU). The assay is described as above. The conditions noted are these: copolymer 600 g/ha where named, 300 l/ha, after 21 days at 20° C. How it is done: as §1, §2
Assay [5] deals with Sesbania exaltata (SEBEX). Described as above. Conditions: copolymer 600 g/ha where named, 300 l/ha, after 21 days at 20° C. On the procedure: as §1, §2
The test system of assay [6] is SEBEX, AMARE, GALAP, ABUTH, ECHCG, PHBPU (Total). Nature of the assay: Greenhouse herbicidal action of glyphosate test formulations, total over the six plant species. The conditions noted are these: copolymer 600 g/ha where named. How it is done:
as §1, §2

As to `O=C(O)CNCP(=O)(O)O` [Glyphosate, N-phosphonomethylglycine], the “herbicidal action ABUTH” value is 0% in assay [1] (glyphosate 200 g/ha), 10% in assay [1] (glyphosate 300 g/ha) and 15% in assay [1] (glyphosate 500 g/ha). Further, the “herbicidal action AMARE” value in assay [2] (glyphosate 200 g/ha) worked out at 20%; in assay [2] (glyphosate 300 g/ha), 45%; in assay [2] (glyphosate 500 g/ha), 65%. Also, the “herbicidal action ECHCG” value came to 15% in assay [3] (glyphosate 200 g/ha), 20% in assay [3] (glyphosate 300 g/ha) and 40% in assay [3] (glyphosate 500 g/ha). Further, the “herbicidal action GALAP” value in the assay with Galium aparine (GALAP) (glyphosate 200 g/ha) stood at 5%; in the assay with Galium aparine (GALAP) (glyphosate 300 g/ha) it was 20%; in the assay with Galium aparine (GALAP) (glyphosate 500 g/ha), 40%. Moreover, the “herbicidal action PHBPU” value in assay [4] (glyphosate 200 g/ha) is reported as 10%; in assay [4] (glyphosate 300 g/ha), 20%; in assay [4] (glyphosate 500 g/ha), 40%. For the same compound, the “herbicidal action SEBEX” value is given as 10% in assay [5] (glyphosate 200 g/ha, 0% no effect, 100% complete destruction); 15% in assay [5] (glyphosate 300 g/ha); 30% in assay [5] (glyphosate 500 g/ha). Besides, the “herbicidal action Total” value in assay [6] (glyphosate 200 g/ha) was found to be 10%; in assay [6] (glyphosate 300 g/ha), 22%; in assay [6] (glyphosate 500 g/ha) it was 38%.

The values are drawn from patent US7407667B2, “Pesticidal preparations comprising copolymers” (Clariant Produkte (Deutschland) GmbH, priority 2001, dated 2008).
